ChEMBL document CHEMBL1201862, “PubChem BioAssay data set” (2004)
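Grown in 96-well plates, cells were treated for 48 hours with each compound at five concentrations. Insufficient inhibition: endpoint recorded as highest concentration tested. At the GI50, growth is halved.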 Active and inactive are the calls of the source. No stated cut-off is given here; in the data, active = GI50 up to about 1.1 µM and inactive = higher.

Tests used:
Experiment in all cases: growth of human tumour cells (NCI), 48 h
[1] = tested on: LOX IMVI
[2] = tested on: SF-268
[3] = tested on: DMS-114
[4] = tested on: NCI-H23
[5] = tested on: U-251
[6] = tested on: COLO 205
[7] = tested on: TK-10
[8] = tested on: A498
[9] = tested on: SNB-78
[10] = tested on: MOLT-4
[11] = tested on: IGROV-1
[12] = tested on: OVCAR-4
[13] = tested on: RXF 393
[14] = tested on: NCI-H226
[15] = tested on: M19-MEL
[16] = tested on: HCC 2998
[17] = tested on: SK-MEL-2
[18] = tested on: A549
[19] = tested on: KM12
[20] = tested on: SW-620
[21] = tested on: M14
[22] = tested on: UO-31
[23] = tested on: HCT-116
[24] = tested on: SNB-75
[25] = tested on: NCI-H460
[26] = tested on: XF498
[27] = tested on: SF-295
[28] = tested on: HCT-15
[29] = tested on: HOP-18
[30] = tested on: DLD-1
[31] = tested on: SR
[32] = tested on: ACHN
[33] = tested on: EKVX
[34] = tested on: 786-0
[35] = tested on: OVCAR-8
[36] = tested on: SNB-19
[37] = tested on: CCRF-CEM
[38] = tested on: HOP-92
[39] = tested on: HOP-62
[40] = tested on: OVCAR-3
[41] = tested on: HT-29
[42] = tested on: K562
[43] = tested on: SK-MEL-5
[44] = tested on: HL-60
[45] = tested on: SK-MEL-28
[46] = tested on: KM-20L2
[47] = tested on: NCI-H522
[48] = tested on: LXFL 529
[49] = tested on: OVCAR-5
[50] = tested on: SN12C
[51] = tested on: SK-OV-3
[52] = tested on: UACC-257
[53] = tested on: DMS-273
[54] = tested on: SF-539
[55] = tested on: Malme-3M
[56] = tested on: CAKI-1
[57] = tested on: RXF 631
[58] = tested on: RPMI-8226

Measured: GI50

CCC1CN2CCc3c([nH]c4ccccc34)C2C[C@@H]1CC(=O)N(C)C (some centres undefined)
inactive: [1] > 100 µM | [2] > 100 µM | [3] > 100 µM | [4] > 100 µM | [5] > 100 µM | [6] > 100 µM | [7] > 100 µM | [8] > 100 µM | [9] > 100 µM | [10] > 100 µM | [11] > 100 µM | [12] > 100 µM | [13] > 100 µM | [14] > 100 µM | [15] > 100 µM | [16] > 100 µM | [17] > 100 µM | [18] > 100 µM | [19] > 100 µM | [20] > 100 µM | [21] > 100 µM | [22] > 100 µM | [23] > 100 µM | [24] 21.4 µM | [25] > 100 µM | [26] > 100 µM | [27] > 100 µM | [29] > 100 µM | [30] > 100 µM | [31] 78.7 µM | [32] > 100 µM | [33] > 100 µM | [34] > 100 µM | [35] > 100 µM | [36] > 100 µM | [37] > 100 µM | [38] 51.6 µM | [39] > 100 µM | [40] > 100 µM | [41] > 100 µM | [42] > 100 µM | [43] > 100 µM | [44] > 100 µM | [45] > 100 µM | [46] > 100 µM | [47] > 100 µM | [48] > 100 µM | [49] > 100 µM | [50] > 100 µM | [51] 39.6 µM | [52] > 100 µM | [53] > 100 µM | [54] > 100 µM | [55] > 100 µM
> 100 µM: [28]

CC(C)(CCl)NC(=O)c1cccc(C(=O)NC(C)(C)CCl)n1
inactive: [1] > 100 µM | [2] > 100 µM | [3] > 100 µM | [4] > 100 µM | [5] > 100 µM | [6] > 100 µM | [7] > 100 µM | [8] > 100 µM | [9] > 100 µM | [56] > 100 µM | [10] > 100 µM | [11] > 100 µM | [12] > 100 µM | [13] > 100 µM | [14] > 100 µM | [15] > 100 µM | [16] > 100 µM | [17] > 100 µM | [18] > 100 µM | [19] > 100 µM | [20] > 100 µM | [21] > 100 µM | [22] > 100 µM | [23] > 100 µM | [24] 92.3 µM | [25] > 100 µM | [57] > 100 µM | [27] > 100 µM | [30] > 100 µM | [31] > 100 µM | [32] > 100 µM | [33] > 100 µM | [34] > 100 µM | [36] > 100 µM | [37] > 100 µM | [38] > 100 µM | [39] > 100 µM | [40] > 100 µM | [41] > 100 µM | [42] > 100 µM | [43] > 100 µM | [44] > 100 µM | [45] > 100 µM | [46] > 100 µM | [47] > 100 µM | [48] > 100 µM | [58] > 100 µM | [49] > 100 µM | [50] > 100 µM | [51] > 100 µM | [53] > 100 µM | [54] > 100 µM | [55] > 100 µM
> 100 µM: [28]
